Measurements as given in patent US20230218548A1 (priority 2020, published 2023).
Read-outs that look alike come from different tables or passages of the source.

How the values were obtained:
SARS-CoV-2 = experiment: microbe, parasite or virus in culture; format: cell-based, SARS-CoV-2 (USA-WA1/2020)
[1] = biological target: SARS-CoV-2 envelope (E) protein (Severe acute respiratory syndrome coronavirus 2, UniProt P0DTC4); format: cell-based
HeLa-ACE2 cells = format: cell-based; conditions: host cell toxicity, 24 h, read-out: HeLa-ACE2 EC50
Method: Compounds were prepared and plated in 384-well plates as for the infection assay. HeLa-ACE2 cells were seeded in the assay-ready plates at 1.6×10^3 cells/well in assay medium, and plates were incubated for 24 h at 37° C. with 5% CO2. To assess cell viability, the Image-IT DEAD green reagent (Thermo Fisher, 110291) was used according to manufacturer's instructions. Cells were fixed with 4% paraformaldehyde (PFA) and counterstained with DAPI. Fixed cells were imaged using the ImageXpress Micro Confocal High-Content Imaging System (Molecular Devices) with a 10x objective, and total live cells per well quantified in the acquired images using the Live Dead Application Module (MetaXpress).
The in vitro infection assay and the host cell cytotoxicity counterscreen data were uploaded to Genedata Screener, Version 16.0. Data were normalized to neutral (DMSO) […] inhibitor controls (2.5 μM remdesivir for antiviral effect, and 10 μM puromycin for infected host cell toxicity). For the uninfected host cell cytotoxicity counterscreen, 10 μM puromycin (Sigma) was used as a positive control. For dose-response experiments, compounds were tested in technical triplicates, and dose curves were fitted with the four parameter Hill Equation. Replicate data were analyzed using median condensing.

ACE2 = ACE2 (Homo sapiens, UniProt Q9BYF1); experiment: Mass spectrometry analysis of S-nitrosylated ACE2 protein; format: cell-based; conditions: after exposure to SNOC
Method: Biotin switch was performed as described above. […] The samples were desalted using a ZebaSpin desalting column (Thermo Scientific) pre-equilibrated with PBS, and biotinylated ACE2 protein was immunoprecipitated as described above. Immunoprecipitated ACE2 was eluted in 1% SDS solution and precipitated using methanol-chloroform. Dried pellets were dissolved in 8 M urea/100 mM triethylammonium bicarbonate (TEAB, pH 8.5). Samples were diluted to 2 M urea/100 mM TEAB, and proteins were trypsin digested overnight at 37° C. The digested ACE2 peptides were enriched a second time by biotin-avidin affinity to enrich biotinylated peptides representing the initial SNO sites. After avidin enrichment, peptides were eluted by reduction using tris(2-carboxyethyl)phosphine (TCEP).
Samples were analyzed on a Thermo Orbitrap Eclipse mass spectrometer (Thermo). Samples were injected directly onto a 25 cm, 100 μm ID column packed with ethylene bridged hybrid (BEH) 1.7 μm C18 resin (Waters). Samples were separated at a flow rate of 300 nl/min on a nLC 1200 (Thermo) using a gradient of solution A (0.1% formic acid in water, 5% acetonitrile) and solution B (80% acetonitrile/0.1% formic acid). Specifically, a gradient of 1-25% B over 100 min, an increase to 40% B over 20 min, an increase to 100% B over another 10 min and held at […] for a 10 min was used for a 140 min total run time. […]

[2] = Severe acute respiratory syndrome coronavirus 2, HeLa-ACE2, 24 h

Chain of SARS-CoV-2 envelope (E) protein (P0DTC4 whole entry, looked up): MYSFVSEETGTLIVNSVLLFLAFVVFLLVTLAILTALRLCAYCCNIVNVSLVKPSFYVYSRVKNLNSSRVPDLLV
Chain of ACE2 (Q9BYF1 18-805): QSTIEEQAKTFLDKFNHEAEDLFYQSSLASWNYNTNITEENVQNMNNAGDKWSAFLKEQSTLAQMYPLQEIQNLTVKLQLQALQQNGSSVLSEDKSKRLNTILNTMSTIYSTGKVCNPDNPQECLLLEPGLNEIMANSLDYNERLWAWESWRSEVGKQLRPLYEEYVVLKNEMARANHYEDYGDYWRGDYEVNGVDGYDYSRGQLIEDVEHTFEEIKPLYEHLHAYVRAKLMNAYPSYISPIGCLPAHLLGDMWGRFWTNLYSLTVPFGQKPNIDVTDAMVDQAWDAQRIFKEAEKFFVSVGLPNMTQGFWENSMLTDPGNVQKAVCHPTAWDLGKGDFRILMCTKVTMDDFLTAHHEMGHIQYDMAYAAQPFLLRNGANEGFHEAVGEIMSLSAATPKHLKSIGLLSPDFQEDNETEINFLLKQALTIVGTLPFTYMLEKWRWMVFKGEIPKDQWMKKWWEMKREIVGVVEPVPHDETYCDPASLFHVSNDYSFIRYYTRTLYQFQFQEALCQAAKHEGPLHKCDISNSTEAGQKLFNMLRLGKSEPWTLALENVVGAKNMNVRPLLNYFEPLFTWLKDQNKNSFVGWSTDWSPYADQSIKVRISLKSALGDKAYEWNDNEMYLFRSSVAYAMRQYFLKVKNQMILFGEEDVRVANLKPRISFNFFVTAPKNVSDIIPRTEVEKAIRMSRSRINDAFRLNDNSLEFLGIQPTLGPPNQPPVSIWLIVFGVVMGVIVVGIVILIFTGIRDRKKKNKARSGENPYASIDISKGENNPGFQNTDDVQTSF

| Structure (SMILES) | Selectivity Index CC50/EC50 (SARS-CoV-2) | EC50 (SARS-CoV-2; [2]) [µM] | CC50 (host cell cytotoxicity) (HeLa-ACE2 cells) [µM] | EC50 (SARS-CoV-2) [µM] | other results |
| --- | --- | --- | --- | --- | --- |
| Cc1cccc(/C=N/Nc2cc(N3CCOCC3)nc(OCCc3ccccn3)n2)c1 [Apilimod] | >332.11 | 0.0072 | – | – | – |
| CC12CC3CC(C)(C1)CC(N)(C3)C2 [NMT1, memantine] | 2.69 | 53.9 | – | – | Inhibition of E protein voltage-dependent K+ current [1]: inhibited in a dose-dependent manner |
| CCC12CC3CC(N)(C1)CC(CO[N+](=O)[O-])(C3)C2 (stereo not shown) [NMT2] | – | – | 122 | 21.9 | – |
| NC12CC3CC(CC(C3)C1)C2 [NMT4, amantadine] | >2.86 | 70 | – | – | – |
| CC12CC3(C)CC(CCN)(C1)CC(CO[N+](=O)[O-])(C2)C3 [NMT6] | – | – | 10.5 | 3.32 | – |
| NCC1(c2cccc(O[N+](=O)[O-])c2)C2CC3CC(C2)CC1C3 (stereo not shown) [NMT7] | – | – | > 200 | 90.7 | – |
| CCC(O[N+](=O)[O-])C12CC3(C)CC(C)(CC(CCN)(C3)C1)C2 (stereo not shown) [NMT8] | – | – | 8.37 | 3.75 | – |
| CC12CC3(C)CC(CN)(C1)CC(O[N+](=O)[O-])(C2)C3 [NMT9] | – | – | > 200 | > 200 | – |
| COc1ccc(C[C@H](N)C(=O)N[C@H]2[C@@H](O)[C@H](n3cnc4c(N(C)C)ncnc43)O[C@@H]2CO)cc1 [Puromycin] | 0.728 | 0.617 | – | – | – |
| CCC(CC)COC(=O)[C@H](C)N[P@](=O)(OC[C@H]1O[C@@](C#N)(c2ccc3c(N)ncnn23)[C@H](O)[C@@H]1O)Oc1ccccc1 [Remdesivir] | >16.94 | 0.142 | – | – | – |
| N[C@@H](CSN=O)C(=O)O [SNOC] | – | – | – | – | S-nitrosylated ACE2 sites by mass spectrometry (ACE2): S-nitrosylated ACE2 at Cys^261 and Cys^496 |
